Results as given in patent publication US4038308A, “Prostaglandin derivatives” (American Home Products Corporation, priority 1976, dated 1977).

Tests used:
[1] = tested on: bronchoconstricting effects of a standard dose of acetylcholine; test: Bronchodilation upon aerosol inhalation in the guinea pig: inhibition of acetylcholine bronchoconstriction (method of Rosenthale et al.); assay type: in vivo; settings: acetylcholine i.v. dose producing ca. 30% bronchoconstriction
Text: In using the compounds of the invention to produce bronchodilating effects in warm-blooded animals, they may be administered in a variety of dosage forms: oral, injectable, and aerosol inhalation. Aerosol inhalation is a preferred method because of its rapid onset of action, great potency, and specificity of action. The particular dosage to obtain the bronchodilating effect will vary with the particular compound employed, the particular animal involved, and the degree of bronchodilation desired. In the guinea pig, by aerosol inhalation, the dose to produce bronchodilation is from about 0.15 micrograms to about 25 micrograms, and preferably from about 0.15 to about 15 micrograms. The bronchodilation produced upon aerosol inhalation can be observed by the method of Rosenthale et al., J. Pharmacol. Exp. Ther., 178, 541 (1971). Using this procedure the following results were obtained:
*The dose (i.v.) of acetylcholine which produces a ca. 30%

[2] = Hypotensive effect (blood pressure change) in the anesthetized dog, intravenous route; assay type: in vivo; settings: dose 100 μg/kg., average of two animals
Description: In the use of the compounds of the invention to produce hypotensive effects in warm-blooded animals, administration by the injectable route is preferred, preferably the intravenous route.
Thus in the anesthetized dog by the intravenous route the dose to produce hypotension is from about 1 μg/kg. to about 200 μg/kg. and preferably from about 10 μg/kg. to about 100 μg/kg. Using this procedure the following results were obtained.

SMILES	Percent Inhibition of the bronchoconstricting effects of a standard dose of acetylcholine ([1]; dose 0.15 μg)	Percent Inhibition of the bronchoconstricting effects of a standard dose of acetylcholine ([1]; dose 1.50 μg)	Percent Inhibition of the bronchoconstricting effects of a standard dose of acetylcholine ([1]; dose 15 μg)	Percent Inhibition of the bronchoconstricting effects of a standard dose of acetylcholine ([1]; dose .015 μg)	Δ B.P. [2]
C#C[C@@H]1CC(=O)[C@H](CCCCCCC(=O)O)[C@H]1/C=C/[C@@H](O)CCCCC [3α-Ethynyl-2β-[(3S)-3-Hydroxy-Trans-1-Octenyl]-5-Oxo-1α-Cyclopentaneheptanoic Acid]	52%	58%	76%	28%	–
C#CC1CC(=O)[C@H](C/C=C\CCCC(=O)O)[C@H]1/C=C/[C@H](O)CCCCC (stereo partly drawn) [7-([3RS]-3-Ethynyl-2β-[(3R)-3-Hydroxy-Trans-1-Octenyl]-5-Oxo-1β-Cyclopentyl)-Cis-5-Heptenoic Acid]	–	43%	68%	–	–
C#CC1CC(=O)[C@H](C/C=C\CCCC(=O)O)[C@H]1/C=C/[C@@H](O)CCCCC (stereo partly drawn) [7-([3RS]-3-Ethynyl-2β-[(3S)-3-Hydroxy-Trans-1-Octenyl]-5-Oxo-1α-Cyclopentyl)-Cis-5-Heptenoic Acid]	–	–	–	–	-31 mm. mg
C#CC1CC(=O)[C@H](C/C=C\CCCC(=O)O)[C@H]1/C=C/C(O)(C#C)CCCCC (stereo partly drawn) [7-[(3RS)-3-Ethynyl-2β-[(3RS)-3-Ethynyl-3-Hydroxy-Trans-1-Octenyl]-5-Oxo-1α-Cyclopentyl]-Cis-5-Heptenoic Acid]	56%	86%	–	42%	-41 mm. mg
C#CC1CC(=O)[C@H](CCCCCCC(=O)O)[C@H]1/C=C/C(C)(O)CCCCC (stereo partly drawn) [(3RS)-3-Ethynyl-2β[(3RS)-3-Hydroxy-3-Methyl-Trans-1-Octenyl]-5-Oxo-1α-cyclopentane-Heptanoic Acid]	54%	56%	37%	–	-16 mm. mg
C#CC1CC(=O)[C@H](CCCCCCC(=O)O)[C@H]1/C=C/C(=O)CCCCC (stereo partly drawn) [(3RS)-3-Ethynyl-5-Oxo-2β-(3-Oxo-Trans-1-Octenyl)-1α-Cyclopentaneheptanoic Acid]	–	36%	75%	–	–
